Experimental data taken from PubChem BioAssay AID1549 (Sanford-Burnham Center for Chemical Genomics, 2009).
Activity calls are given as the source filed them. How the calls were made is not given here.

molecular target: Influenza A virus M2 proton channel (A/TW/4845/1999 H1N1); test: NMR binding screen, influenza A virus M2 proton channel, Kd (AID 1549); details: M2 protein

Compound | Kd
Oc1ccc(C2SCCS2)cc1 | > 4 mM (inactive)
Cn1nnc2cc(C(=O)N3CCSCC3)ccc21 | > 4 mM (inactive)
O=C1C=C(Nc2ccc(O)cc2)c2ccccc2C1=O | > 4 mM (inactive)
COc1c2ccoc2cc2oc(C)cc(=O)c12 | > 4 mM (inactive)
CC1(C)C2CC(=O)[C@]3(C)C(CC[C@@]4(C)[C@H](c5ccoc5)OC(=O)[C@H]5O[C@]543)[C@@]2(C)C=C[C@@H]1O (stereo partly drawn) | > 4 mM (inactive)
Cc1cc(C)nc(/N=C(\N)N2CCc3ccccc32)n1 | > 4 mM (inactive)
Cc1nc(N)sc1C(=O)N/N=C/c1ccncc1 | > 4 mM (inactive)
O=C(c1ccco1)N1CCNCC1 | > 4 mM (inactive)
O=C1CSC(=Nc2cc(Cl)ccc2Cl)N1 | > 4 mM (inactive)
Cc1ccc(N2CCN(C(=O)c3ccccc3)CC2)c(C)c1 | > 4 mM (inactive)
Cc1cc(NC(=O)c2ccccc2C(=O)O)no1 | > 4 mM (inactive)
O=C(Nc1cccnc1)c1cnn2cccnc12 | > 4 mM (inactive)
CN1CCN(C(=O)c2ccccc2C(=O)O)CC1 | > 4 mM (inactive)
NCc1ccc(S(=O)(=O)O)cc1 | > 4 mM (inactive)
COc1ccc(-c2noc(-c3ccco3)n2)cc1OC | > 4 mM (inactive)
NCCCCN=C(N)N | > 4 mM (inactive)
OCc1cccc2c1OCCO2 | > 4 mM (inactive)
COc1cccc(N2CCNCC2)c1 | > 4 mM (inactive)
N#CCSc1nc(-c2ccccc2)cs1 | > 4 mM (inactive)
O=C1NCCCC1C(=O)N/N=C/c1ccccc1 (stereo not drawn) | > 4 mM (inactive)
COc1c2ccoc2c(OC)c2oc(=O)ccc12 | > 4 mM (inactive)
CC12CNCC(C)(CNC1)C2O (stereo not drawn) | > 4 mM (inactive)

Compound | Kd
NC1=C(c2ccccc2)C(=O)c2ccccc21 | > 4 mM (inactive)
C=C[C@H]1CN2CC[C@H]1C[C@@H]2[C@H](O)c1ccnc2ccccc12 | > 4 mM (inactive)
COCc1c(CN)cnc(C)c1N | > 4 mM (inactive)
Cn1c(=O)cc(N2CCCCC2)[nH]c1=O | > 4 mM (inactive)
O=C(Nc1ccccn1)C(=O)N1CCCC1 | > 4 mM (inactive)
CC(=O)c1cccc(NC(=O)Nc2c(C)nn(C)c2C)c1 | > 4 mM (inactive)
Cc1oc(-c2ccccc2)nc1CC(=O)O | > 4 mM (inactive)
NS(=O)(=O)c1ccc2c3c(cccc13)C(=O)N2 | > 4 mM (inactive)
CC(=O)NN1C(=O)c2cccc3cccc(c23)C1=O | > 4 mM (inactive)
COc1ccc2c(c1OC)C(=O)OC2[C@H]1c2c(cc3c(c2OC)OCO3)CCN1C (stereo partly drawn) | > 4 mM (inactive)
C=C1CCC2[C@](C)(CO)[C@H](O)CC[C@@]2(C)[C@@H]1C/C=C1/C(=O)OC[C@H]1O (stereo partly drawn) | > 4 mM (inactive)
COc1ccc2c3c1O[C@H]1C[C@@H](O)C=C[C@@]31CCN(C)C2 | > 4 mM (inactive)
O=C(O)C1CN2CCC1CC2 (stereo not drawn) | > 4 mM (inactive)
Nc1oncc1-c1ccccn1 | > 4 mM (inactive)
Cc1nc(SCC#N)c2c(C)c(C)sc2n1 | > 4 mM (inactive)
N#Cc1cccc(Cn2nnc(-c3ccccc3)n2)c1 | > 4 mM (inactive)
COc1ccc(NC2=NCC(C)S2)cc1 (stereo not drawn) | > 4 mM (inactive)
Cc1onc(-c2ccccc2)c1C(=O)Nc1ccncc1 | > 4 mM (inactive)
COC(=O)Cn1c2ccccc2c2nc(C)sc21 | > 4 mM (inactive)
Cc1cc(C(=O)O)n[nH]1 | > 4 mM (inactive)
Cc1nnsc1-c1onc(C)c1C(=O)O | > 4 mM (inactive)
OCc1ccc(CN2CCOCC2)cc1 | > 4 mM (inactive)

Compound | Kd
O=C(c1ccccc1)c1cncc(Br)c1 | > 4 mM (inactive)
NC(=O)C1CCCN1S(=O)(=O)c1ccc(F)cc1 (stereo not drawn) | > 4 mM (inactive)
Cc1csc(NC(=O)c2ccoc2C)n1 | > 4 mM (inactive)
Nc1cc(N)nc(SCc2cccnc2)n1 | > 4 mM (inactive)
Cc1cc(N2C(=O)CCC2=O)n(-c2ccccc2)n1 | > 4 mM (inactive)
CC(O)c1nc2ccccc2[nH]1 (stereo not drawn) | > 4 mM (inactive)
Cc1cc(C)n(S(=O)(=O)c2cc(C)c(C)cc2C)n1 | > 4 mM (inactive)
O=C(O)c1ccccc1C(=O)NCC1CCCO1 (stereo not drawn) | > 4 mM (inactive)
CC(C)(C)NC(=O)N1CCC(C(=O)O)CC1 | > 4 mM (inactive)
COc1cc(OC)c2c(OC)c(-c3ccc4c(c3)OCO4)c(=O)oc2c1 | > 4 mM (inactive)
CC(=O)O[C@H]1CC[C@@]2(C)C(=CCC3C2CC[C@@]2(C)C3CC[C@@H]2C(C)CCCC(C)C)C1 (stereo partly drawn) | > 4 mM (inactive)
CC(=O)N1C(=S)NC(=O)/C1=C\c1cccnc1 | > 4 mM (inactive)
c1cncc(Nc2nc(-c3ccncc3)cs2)c1 | > 4 mM (inactive)
O=C(NN1CCOCC1)c1ccccc1F | > 4 mM (inactive)
CCOC(=O)c1c(C)nc2cc(C)ccn12 | > 4 mM (inactive)
NC1CCN(Cc2ccccc2)CC1 | > 4 mM (inactive)
Cn1c(=O)n(-c2cccc(Cl)c2)c(=O)n1C | > 4 mM (inactive)
C[C@]12C=CC(=O)C=C1CCC1C2CC[C@]2(C)C(=O)CCC12 (stereo partly drawn) | > 4 mM (inactive)
NC(N)=NCCCCN=C(N)N | > 4 mM (inactive)
CC1(C)CC2(C)N(N)C(=O)CN2C(=S)N1 (stereo not drawn) | > 4 mM (inactive)
O=C(O)C1CSC2(CCCCC2)N1 (stereo not drawn) | > 4 mM (inactive)
C=C1[C@H]2CC[C@@]3(C)[C@H](c4ccoc4)OC(=O)C[C@]13O[C@H]1C[C@H](O)C(C)(C)[C@H](CC(=O)OC)[C@]12C | > 4 mM (inactive)

Compound | Kd
Nc1cccc(S(=O)(=O)N2CCCC2)c1 | > 4 mM (inactive)
COc1cc2c(cc1OC)C1=C(C#N)CCC(=O)N1CC2 | > 4 mM (inactive)
COc1ccc(C)cc1-n1c(-c2ccncc2)n[nH]c1=S | > 4 mM (inactive)
COc1cccc(NC(=O)c2nc3ncccn3n2)c1 | > 4 mM (inactive)
O=C(O)c1cn(-c2ccccc2)nc1-c1cccnc1 | > 4 mM (inactive)
CNC(=O)c1ccccc1N | > 4 mM (inactive)
COC(=O)c1cc(-c2c[nH]c3ccccc23)n[nH]1 | > 4 mM (inactive)
CN1CCN(c2ccc(C(=O)O)cc2)CC1 | > 4 mM (inactive)
Nc1ncnc2nc(SCCN3CCCCC3)[nH]c12 | > 4 mM (inactive)
O=C(CS(=O)(=O)c1ccccc1)Nc1nccs1 | > 4 mM (inactive)
O=S(=O)(c1cccc2cccnc12)N1CCOCC1 | > 4 mM (inactive)
CN1CCN(Cc2cccnc2)CC1 | > 4 mM (inactive)
CC(=O)NC(=S)Nc1cccc(C(=O)O)c1C | > 4 mM (inactive)
OCC(O)C(O)C(O)CO (stereo not drawn) | > 4 mM (inactive)
COc1c2ccoc2cc2oc(=O)ccc12 | > 4 mM (inactive)
CCn1nnc(NC(=O)c2cc3ccccc3o2)n1 | > 4 mM (inactive)
NC(=O)c1ccc(NC(=O)c2cccnc2)cc1 | > 4 mM (inactive)
O=C(NCN1CCOCC1)c1cnccn1 | > 4 mM (inactive)
O=c1[nH]c(CN2CCN(CCO)CC2)nc2ccccc12 | > 4 mM (inactive)
COc1ccc(NC(=O)C2CC(=O)N=C(N)S2)cc1 (stereo not drawn) | > 4 mM (inactive)
OCC1Cc2ccccc2N1 (stereo not drawn) | > 4 mM (inactive)
O=C(Nc1ccc(-c2nnco2)cc1)c1ccccc1 | > 4 mM (inactive)
